Source: article PMC12735844, “2-(Trihydroxyphenyl)thienopyrimidinones as Key Scaffolds for Targeting a Novel Allosteric Site of HIV-1 Integrase” (Molecules, 2025)
“And” between values parts separate entries of the source, which are not always exact repeats. Equal entries are not always repeated. Where two headings read alike, the source gives them in different places.

Key:
[1] = target: T1, HIV-1 IN (wild-type) in the presence of LEDGF/p75 (Human immunodeficiency virus type 1 group M subtype B, UniProt P12497); test: HTRF HIV-1 IN LEDGF/p75-dependent assay (3'-processing and strand transfer), wild-type IN, with or without sucrose; assay type: biochemical; conditions: for IC50: IC50 IN LEDGF/p75-dependent integration
T1 construct: IN is a 32 kDa multimeric enzyme comprising three domains; His; made in house; host or cells: Escherichia coli BL21 (DE3)
Experimental: (§1) The IN LEDGF/p75-dependent and indepentent assay was performed for the evaluation of 3′-processing and strand-transfer IN reactions inhibition in the presence/absence of recombinant LEDGF/p75 protein, as previously described.
(§2) The same assay in the presence of HIV-1 IN wt, K173A and H185A mutant proteins, was used to evaluate the effect of sucrose in the presence of selected compounds.

wt RT RNase H = target: wt RT RNase H; design: method as in PMID 33143469; conditions: previously reported quinazolinone; cited from earlier work
[2] = target: T1, HIV-1 IN (wild-type) in the presence of LEDGF/p75; design: method as in PMID 37764476, PMID 23631411; conditions: previously reported dihydroxyphenyl-thienopyrimidinones; read-out: IN LEDGF/p75-dependent IC50; cited from earlier work
[3] = target: T2, HIV-1 IN in the absence of LEDGF/p75 (Human immunodeficiency virus type 1 group M subtype B, UniProt P12497); test: HTRF HIV-1 IN LEDGF/p75-independent assay; assay type: biochemical; conditions: mean ± SE, three experiments, read-out: IC50 IN LEDGF/p75-independent integration
T2 construct: His; made in house; host or cells: Escherichia coli BL21 (DE3)
Experimental: as §1

[4] = target: T3, HIV-1 IN-IN subunit exchange (Human immunodeficiency virus type 1 group M subtype B, UniProt P12497); test: HTRF-based IN-IN subunit exchange assay; assay type: biochemical; conditions: for IC50: mean ± SE, three experiments
T3 construct: IN is a 32 kDa multimeric enzyme comprising three domains; made in house; host or cells: Escherichia coli BL21 (DE3)
Experimental: (§3) HIV-1 His and FLAG-tagged INs were mixed in a mix buffer previously described and compounds added to the mixture and incubated for 2.5 h at room temperature. At the end of the time, a mixture of anti-His6-XL665 and anti-FLAG-EuCryptate antibodies were added to the reaction and, after an incubation time of 3 h, the HTRF signal was recorded as described in the previous paragraph.

HIV-1 IN H185A mutant = target: T4, HIV-1 IN H185A mutant (Human immunodeficiency virus type 1 group M subtype B, UniProt P12497, F1332A); test: HTRF IN LEDGF/p75-dependent assay on H185A mutant, with or without sucrose; assay type: biochemical; conditions: for IC50: LEDGF/p75-dependent activity; for Fold of increase of potency, H185A mutant: with sucrose vs alone
T4 construct: IN is a 32 kDa multimeric enzyme comprising three domains; His; made in house; host or cells: Escherichia coli BL21 (DE3)
Experimental: (§4) The commercial QuikChange mutagenesis Kit (Agilent Technologies Inc., Santa Clara, CA, USA) were used to introduce the selected substitutions on HIV-1 IN wt plasmid and the correct presence of alanine in 173 and 185 position were evaluated in the electropherogram provided by Bio-Fab, after the sequencing.
(§5) HIV-1 IN wt, K173A and H185A mutant proteins were expressed in Escherichia coli strain BL21 (DE3) after transformation with a plasmid containing protein gene. Recombinant proteins were then purified using a Ni-Sepharose column and a heparin column and stored as previously described. LEDGF/p75 with 6-his and FLAG tags were purified with a heparin column and a Superdex 200 GL (Merck Sigma Aldrich, Milan, Italy) column previously described.
as §1, §2

[5] = target: T5, HIV-1 IN/LEDGF/p75 binding (Human immunodeficiency virus type 1 group M subtype B, UniProt P12497); test: HTRF-based IN-LEDGF/p75 binding assay; conditions: mean ± SE, three experiments
T5 construct: IN is a 32 kDa multimeric enzyme comprising three domains; made in house; host or cells: Escherichia coli BL21 (DE3)
Experimental: The IN-LEDGF/p75 binding was evaluated using a FRET method, in which His-IN was pre-incubated with test compounds in a mix buffer previously described, for 30 min at room temperature. After the addition of FLAG-LEDGF/p75 and a mixture of anti-His6-XL665 and anti-FLAG-EuCryptate antibodies, the reaction was read after 4 h at 4 °C, using 314 nm for excitation wavelength and […] and 620 nm for the wavelength of the acceptor and donor emission, respectively, with a Perkin Elmer Victor 3 plate reader (Perkin Elmer, Waltham, MA, USA), and the HTRF signal calculated by the emission ratio 665 nm/620 nm multiplied by 10.000.

human T-cell line CEM-SS = test: Cytotoxicity in the XTT-based cell viability assay; conditions: CEM-SS cells
Experimental: (§6) Antiviral activity of selected thienopyrimidinones was determined via the 2,3-bis[2-methoxy-4-nitro-5-sulfophenyl]-5-[(phenylamino)-carbonyl]-2H tetrazolium hydroxide (XTT)-based cell viability assay, using the HIV-1RF isolate and human T-cell line CEM-SS.

HIV-1 IN K173A mutant = target: T6, HIV-1 IN K173A mutant (Human immunodeficiency virus type 1 group M subtype B, UniProt P12497, K1320A); test: HTRF IN LEDGF/p75-dependent assay on K173A mutant, with or without sucrose; assay type: biochemical; conditions: for Fold of increase of potency, K173A mutant: with sucrose vs alone
T6 construct: IN is a 32 kDa multimeric enzyme comprising three domains; His; made in house; host or cells: Escherichia coli BL21 (DE3)
Experimental: as §4, §5, §1, §2

[6] = system: HIV-1RF isolate in CEM-SS cells; test: Antiviral activity, XTT-based cell viability assay
Experimental: as §6

HIV-1 IN multimerization = target: T7, HIV-1 IN multimerization (Human immunodeficiency virus type 1 group M subtype B, UniProt P12497); test: HTRF-based assay of higher-order, aberrant IN multimerization; assay type: biochemical; conditions: dash = no induction of higher-order
T7 construct: IN is a 32 kDa multimeric enzyme comprising three domains; made in house; host or cells: Escherichia coli BL21 (DE3)
Experimental: as §3

[7] = in the presence of LEDGF/p75, compound alone, mean ± SE, three experiments
[8] = HIV-1 IN H185A mutant IC50 alone, no sucrose
[9] = HIV-1 IN H185A mutant IC50 with sucrose, in the presence of sucrose
[10] = LEDGF/p75-dependent, IC50 alone vs with sucrose

## Cc1sc2nc(-c3cc(O)c(O)cc3O)[nH]c(=O)c2c1C [C00002]
[1]; [7]
  IC50: 0.45 ± 0.09 µM

## O=c1[nH]c(-c2cc(O)c(O)c(O)c2)nc2sc3c(c12)CCCCC3 [C00006]
[1]; [7]
  IC50: 0.31 ± 0.035 µM

## O=c1[nH]c(-c2c(O)cc(O)cc2O)nc2sc3c(c12)CCCCC3 [C00007]
[1]; [7]
  IC50: 5.2 ± 1.2 µM

## O=c1[nH]c(-c2cc(O)c(O)cc2O)nc2sc3c(c12)CCC3 [C00008]
[1]; [7]
  IC50: 1.96 ± 0.125 µM

## O=c1[nH]c(-c2cc(O)c(O)c(O)c2)nc2sc3c(c12)CCC3 [C00009]
[1]; [7]
  IC50: 0.87 ± 0.045 µM

## O=c1[nH]c(-c2ccc(O)c(O)c2)nc2ccc(I)cc12 [Compound 1]
Wt RT RNase H
  IC50: 0.11 ± 0.01 µM

## Cc1sc2nc(-c3cc(O)cc(O)c3)[nH]c(=O)c2c1C [Compound 2]
[2]
  IC50: 3.7 ± 0.73 µM

## O=c1[nH]c(-c2cc(O)cc(O)c2)nc2sc3c(c12)CCCCC3 [Compound 3]
[2]
  IC50: 3.37 ± 0.48 µM

## Cc1sc2nc(-c3cc(O)ccc3O)[nH]c(=O)c2c1C [Compound 4]
[2]
  IC50: 85 ± 6 µM

## Cc1sc2nc(-c3cc(O)c(O)c(O)c3)[nH]c(=O)c2c1C [Compound 5, 5,6-Dimethyl-2-(3,4,5-trihydroxyphenyl)thieno[2,3-d]pyrimidin-4(3H)-one]
[3]
  IC50: 5.35 ± 0.55 µM
[1]; [7]
  IC50: 8 ± 2 µM

## Cc1sc2nc(-c3cc(O)c(O)cc3O)[nH]c(=O)c2c1C [Compound 6, 5,6-Dimethyl-2-(2,4,5-trihydroxyphenyl)thieno[2,3-d]pyrimidin-4(3H)-one]
[4]
  IC50: 5.45 ± 0.05 µM
HIV-1 IN H185A mutant; [8]
  IC50: 4.64 ± 0.7 µM
HIV-1 IN H185A mutant; [9]
  IC50: 0.48 ± 0.08 µM
HIV-1 IN H185A mutant
  Fold of increase of potency, H185A mutant: 9.7
[5]
  IC50: 75 ± 12 µM
Human T-cell line CEM-SS
  cytotoxicity: devoid of cytotoxicity
HIV-1 IN K173A mutant
  IC50: 6.5 ± 1.7 µM
  Fold of increase of potency, K173A mutant: 32.5
[3]
  IC50: 0.76 ± 0.01 µM
[6]
  effect on viral replication: not able to inhibit viral replication
HIV-1 IN multimerization
  MI50 IN multimerization: none succeeded in inducing multimerization
[1]; [10]
  reduction in activity by sucrose (times): approximately 10

## Cc1sc2nc(-c3c(O)cc(O)cc3O)[nH]c(=O)c2c1C [Compound 7, 5,6-Dimethyl-2-(2,4,6-trihydroxyphenyl)thieno[2,3-d]pyrimidin-4(3H)-one]
[1]; [7]
  IC50: 6.1 ± 1.6 µM

## Cc1sc2nc(-c3ccc(O)c(O)c3O)[nH]c(=O)c2c1C [Compound 8, 5,6-Dimethyl-2-(2,3,4-trihydroxyphenyl)thieno[2,3-d]pyrimidin-4(3H)-one]
[1]; [7]
  IC50: 11.8 ± 1.85 µM

## O=c1[nH]c(-c2cc(O)c(O)cc2O)nc2sc3c(c12)CCCCC3 [Compound 9, 2-(2,4,5-Trihydroxyphenyl)-3,5,6,7,8,9-hexahydro-4H-cyclohepta[4,5]thieno[2,3-d]pyrimidin-4-one]
[4]
  IC50: 6.35 ± 1.35 µM
[5]
  IC50: > 100 µM
  IC50 IN/LEDGF/p75 binding: inactive
[3]
  IC50: 0.99 ± 0.09 µM
HIV-1 IN multimerization
  MI50 IN multimerization: none succeeded in inducing multimerization
[1]; [7]
  IC50: 0.965 ± 0.035 µM

## O=c1[nH]c(-c2cc(O)c(O)c(O)c2)nc2sc3c(c12)CCCCC3 [Compound 10, 2-(3,4,5-Trihydroxyphenyl)-3,5,6,7,8,9-hexahydro-4H-cyclohepta[4,5]thieno[2,3-d]pyrimidin-4-one]
[4]
  IC50: 2.05 ± 0.35 µM
HIV-1 IN H185A mutant; [8]
  IC50: 2.27 ± 0.43 µM
HIV-1 IN H185A mutant; [9]
  IC50: 0.61 ± 0.022 µM
HIV-1 IN H185A mutant
  Fold of increase of potency, H185A mutant: 3.7
[5]
  IC50: 6.16 ± 0.98 µM
Human T-cell line CEM-SS
  cytotoxicity: devoid of cytotoxicity
HIV-1 IN K173A mutant
  IC50: 3.3 ± 0.86 µM
  Fold of increase of potency, K173A mutant: 13.2
[3]
  IC50: 3.6 ± 0.39 µM
[6]
  effect on viral replication: not able to inhibit viral replication
HIV-1 IN multimerization
  MI50 IN multimerization: none succeeded in inducing multimerization
[1]; [7]
  IC50: 0.31 µM and 0.315 µM
[1]; [10]
  increase of inhibitory capacity by sucrose (times): ~16

## O=c1[nH]c(-c2cc(O)c(O)cc2O)nc2sc3c(c12)CCC3 [Compound 12, 2-(2,4,5-Ttrihydroxyphenyl)-3,5,6,7-tetrahydro-4H-cyclopenta[4,5]thieno[2,3-d]pyrimidin-4-one]
[4]
  IC50: 17.3 ± 1.7 µM
[5]
  IC50: 24.7 ± 1.75 µM
[3]
  IC50: 0.86 ± 0.14 µM
HIV-1 IN multimerization
  MI50 IN multimerization: none succeeded in inducing multimerization

## O=c1[nH]c(-c2cc(O)c(O)c(O)c2)nc2sc3c(c12)CCC3 [Compound 13, 2-(3,4,5-Trihydroxyphenyl)-3,5,6,7-tetrahydro-4H-cyclopenta[4,5]thieno[2,3-d]pyrimidin-4-one]
[3]
  IC50: 1.12 ± 0.22 µM

## CCCC(C(=O)O)c1c(C)nc2ccc(Cl)cc2c1-c1ccccc1 (centres unmarked) [LEDGIN-6, reference compound]
[4]
  IC50: > 100 µM
[4]; meaning of the bracketed percentage is not defined in the paper
  percentage in parentheses after >100, IN-IN subunit exchange: >100 (100%)
[5]
  IC50: 10 ± 0.4 µM
[3]
  IC50: 10 ± 2 µM
HIV-1 IN multimerization; read-out: MI50 IN multimerization
  EC50: 10 ± 1 µM
[1]; [7]
  IC50: 9 ± 2 µM

## OC[C@H]1O[C@@](CO)(O[C@H]2O[C@H](CO)[C@@H](O)[C@H](O)[C@H]2O)[C@@H](O)[C@@H]1O [sucrose, reference compound]
[1]; [7]
  IC50 IN LEDGF/p75-dependent integration: inactive
